What all share (assay type): biochemical
For assay [1], the target named is T1, JAK3 (Homo sapiens, UniProt P52333).
T1 sequence (P52333 1-1124): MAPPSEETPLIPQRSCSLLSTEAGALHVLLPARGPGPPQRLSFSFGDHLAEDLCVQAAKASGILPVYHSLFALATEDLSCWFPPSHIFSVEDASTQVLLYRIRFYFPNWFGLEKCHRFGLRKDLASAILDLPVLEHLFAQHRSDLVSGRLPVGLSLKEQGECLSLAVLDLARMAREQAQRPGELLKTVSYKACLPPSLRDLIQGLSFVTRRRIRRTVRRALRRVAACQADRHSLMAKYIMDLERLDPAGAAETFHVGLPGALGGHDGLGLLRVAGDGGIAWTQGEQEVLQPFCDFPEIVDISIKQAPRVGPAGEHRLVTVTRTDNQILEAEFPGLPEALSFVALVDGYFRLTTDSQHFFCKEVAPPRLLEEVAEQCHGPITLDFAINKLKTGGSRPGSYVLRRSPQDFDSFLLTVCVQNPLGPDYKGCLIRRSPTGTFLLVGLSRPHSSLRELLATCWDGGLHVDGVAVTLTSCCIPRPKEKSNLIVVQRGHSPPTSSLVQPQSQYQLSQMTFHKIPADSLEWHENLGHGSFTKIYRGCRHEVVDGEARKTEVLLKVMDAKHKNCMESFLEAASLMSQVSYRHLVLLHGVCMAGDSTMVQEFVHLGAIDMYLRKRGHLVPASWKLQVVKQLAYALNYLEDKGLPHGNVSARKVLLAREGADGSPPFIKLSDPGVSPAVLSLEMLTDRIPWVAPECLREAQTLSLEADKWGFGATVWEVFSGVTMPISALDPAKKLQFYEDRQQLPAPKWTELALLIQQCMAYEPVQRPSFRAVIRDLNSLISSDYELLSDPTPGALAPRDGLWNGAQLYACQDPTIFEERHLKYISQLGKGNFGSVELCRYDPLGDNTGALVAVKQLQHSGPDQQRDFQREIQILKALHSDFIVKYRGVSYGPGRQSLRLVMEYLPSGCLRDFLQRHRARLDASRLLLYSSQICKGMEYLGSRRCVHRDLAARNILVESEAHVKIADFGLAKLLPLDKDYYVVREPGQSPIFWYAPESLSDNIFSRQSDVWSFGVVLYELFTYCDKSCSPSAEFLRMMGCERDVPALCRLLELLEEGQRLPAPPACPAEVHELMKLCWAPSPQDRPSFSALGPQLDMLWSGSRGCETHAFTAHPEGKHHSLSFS
Briefly: ExpresS Diversity Kinase Profile, Cerep (LANCE): JAK3. A general note: Time-resolved FRET reads energy transfer from a long-lived donor to a nearby acceptor.

Assay [2] addresses Akt1/PKBα (Homo sapiens, UniProt P31749). Briefly: ExpresS Diversity Kinase Profile, Cerep (LANCE): Akt1/PKBα. Conditions: for inhibition at 150 µM: Akt1/PKBα, Flag: Interference.
In assay [3] the target is PAK2 (Homo sapiens, UniProt Q13177). Briefly: ExpresS Diversity Kinase Profile, Cerep (LANCE): PAK2.
Assay [4] deals with PKA (Homo sapiens, UniProt P17612). Kind of assay: ExpresS Diversity Kinase Profile, Cerep (LANCE): PKA.
Assay [5] concerns the target MAP4K4 (Homo sapiens, UniProt O95819). Kind of assay: ExpresS Diversity Kinase Profile, Cerep (LANCE): MAP4K4.
Assay [6] deals with Src (Homo sapiens, UniProt P12931). Kind of assay: ExpresS Diversity Kinase Profile, Cerep (LANCE): Src.
Assay [7] has as its target IRK (Homo sapiens, UniProt P06213). Briefly: ExpresS Diversity Kinase Profile, Cerep (LANCE): IRK.
Assay [8] concerns the target T2, TAOK2 (Homo sapiens, UniProt Q9UL54).
T2 sequence (Q9UL54 1-1235): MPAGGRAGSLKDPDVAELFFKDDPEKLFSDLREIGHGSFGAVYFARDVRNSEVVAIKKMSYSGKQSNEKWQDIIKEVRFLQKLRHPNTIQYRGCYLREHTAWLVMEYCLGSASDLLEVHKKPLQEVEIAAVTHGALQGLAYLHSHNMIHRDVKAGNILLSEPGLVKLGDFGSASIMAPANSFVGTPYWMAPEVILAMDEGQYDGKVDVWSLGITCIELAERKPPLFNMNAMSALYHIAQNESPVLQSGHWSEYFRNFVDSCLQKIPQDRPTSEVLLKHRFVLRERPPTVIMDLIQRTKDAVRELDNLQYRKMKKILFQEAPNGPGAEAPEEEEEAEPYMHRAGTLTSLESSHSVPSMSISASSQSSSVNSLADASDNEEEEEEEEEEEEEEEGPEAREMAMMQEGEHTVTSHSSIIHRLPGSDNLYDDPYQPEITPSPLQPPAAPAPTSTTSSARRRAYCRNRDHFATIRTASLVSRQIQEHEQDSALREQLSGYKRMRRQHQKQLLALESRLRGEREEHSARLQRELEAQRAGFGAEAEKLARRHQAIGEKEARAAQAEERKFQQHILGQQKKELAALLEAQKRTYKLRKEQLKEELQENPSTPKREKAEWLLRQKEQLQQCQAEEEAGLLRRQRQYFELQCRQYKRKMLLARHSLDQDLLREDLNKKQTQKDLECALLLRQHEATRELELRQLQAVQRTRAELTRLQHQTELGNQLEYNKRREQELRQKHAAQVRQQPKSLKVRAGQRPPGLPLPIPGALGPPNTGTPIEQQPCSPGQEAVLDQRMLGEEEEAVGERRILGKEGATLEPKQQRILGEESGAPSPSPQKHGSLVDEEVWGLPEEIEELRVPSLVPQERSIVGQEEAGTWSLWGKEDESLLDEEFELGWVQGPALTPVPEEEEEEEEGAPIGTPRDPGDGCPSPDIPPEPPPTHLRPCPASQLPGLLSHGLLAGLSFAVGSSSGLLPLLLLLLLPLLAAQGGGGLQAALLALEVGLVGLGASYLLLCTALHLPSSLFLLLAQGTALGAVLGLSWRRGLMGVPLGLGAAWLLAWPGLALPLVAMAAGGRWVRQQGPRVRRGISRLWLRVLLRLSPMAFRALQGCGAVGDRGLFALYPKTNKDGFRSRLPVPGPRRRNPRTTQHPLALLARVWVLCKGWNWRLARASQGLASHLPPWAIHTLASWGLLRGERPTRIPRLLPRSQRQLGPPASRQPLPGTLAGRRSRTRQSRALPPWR
Kind of assay: ExpresS Diversity Kinase Profile, Cerep (LANCE): TAOK2.

The target of assay [9] is VEGFR2 (Homo sapiens, UniProt P35968). Briefly: ExpresS Diversity Kinase Profile, Cerep (LANCE): VEGFR2.
[10] abbreviates: n = 2, read-out: % Inhibition of control values, Mean.
The mark [11] stands for this setting: read-out: % Inhibition of control values, 1st measurement.
Where [12] appears, read: read-out: % Inhibition of control values, 2nd measurement.
Setting [13] is: Flag: Interference, read-out: % Inhibition of control values, 1st measurement.
[14] abbreviates: Flag: Interference, read-out: % Inhibition of control values, 2nd measurement.
The mark [15] stands for this setting: n = 2, Flag: Interference, read-out: % Inhibition of control values, Mean.

Where two headings read alike, the source gives them in different places. Where only a bound is given, the exact number is not on record here.

As usually defined, the inhibition is the drop in the measured response relative to a control, in per cent.

Sequence of MAP4K4 (O95819 whole entry): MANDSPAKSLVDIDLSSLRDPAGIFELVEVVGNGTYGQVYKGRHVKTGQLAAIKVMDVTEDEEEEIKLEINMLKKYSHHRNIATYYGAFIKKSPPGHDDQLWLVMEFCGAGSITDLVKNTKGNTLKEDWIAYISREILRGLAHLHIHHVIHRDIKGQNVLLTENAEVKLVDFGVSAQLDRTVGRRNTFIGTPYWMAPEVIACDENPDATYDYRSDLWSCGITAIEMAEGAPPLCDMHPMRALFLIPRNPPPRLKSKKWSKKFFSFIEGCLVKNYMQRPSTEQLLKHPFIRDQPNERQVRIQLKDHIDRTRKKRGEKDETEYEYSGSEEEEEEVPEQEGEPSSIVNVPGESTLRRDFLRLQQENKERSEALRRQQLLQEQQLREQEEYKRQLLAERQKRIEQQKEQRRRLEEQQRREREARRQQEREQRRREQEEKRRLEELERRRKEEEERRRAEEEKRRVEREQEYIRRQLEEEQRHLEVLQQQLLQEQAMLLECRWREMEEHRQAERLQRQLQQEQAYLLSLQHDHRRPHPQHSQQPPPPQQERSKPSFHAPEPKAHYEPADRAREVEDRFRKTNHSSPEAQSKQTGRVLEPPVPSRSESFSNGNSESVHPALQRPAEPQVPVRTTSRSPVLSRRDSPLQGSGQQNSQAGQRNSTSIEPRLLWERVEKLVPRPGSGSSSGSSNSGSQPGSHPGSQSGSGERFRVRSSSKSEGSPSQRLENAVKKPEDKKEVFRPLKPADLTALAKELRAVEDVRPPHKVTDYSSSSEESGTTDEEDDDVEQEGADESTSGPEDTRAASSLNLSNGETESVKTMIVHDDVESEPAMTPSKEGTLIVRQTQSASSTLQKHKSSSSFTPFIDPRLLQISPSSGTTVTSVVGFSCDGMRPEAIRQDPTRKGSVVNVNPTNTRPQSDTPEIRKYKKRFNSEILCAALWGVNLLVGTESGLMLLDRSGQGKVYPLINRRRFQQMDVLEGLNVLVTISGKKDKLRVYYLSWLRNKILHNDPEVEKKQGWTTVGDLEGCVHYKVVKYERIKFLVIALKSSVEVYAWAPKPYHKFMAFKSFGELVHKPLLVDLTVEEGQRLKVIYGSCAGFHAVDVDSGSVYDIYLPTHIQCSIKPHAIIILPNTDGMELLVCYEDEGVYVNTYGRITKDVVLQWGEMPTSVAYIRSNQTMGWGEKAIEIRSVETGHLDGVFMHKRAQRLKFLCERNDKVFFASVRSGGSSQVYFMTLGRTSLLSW
Sequence of PAK2 (Q13177 whole entry): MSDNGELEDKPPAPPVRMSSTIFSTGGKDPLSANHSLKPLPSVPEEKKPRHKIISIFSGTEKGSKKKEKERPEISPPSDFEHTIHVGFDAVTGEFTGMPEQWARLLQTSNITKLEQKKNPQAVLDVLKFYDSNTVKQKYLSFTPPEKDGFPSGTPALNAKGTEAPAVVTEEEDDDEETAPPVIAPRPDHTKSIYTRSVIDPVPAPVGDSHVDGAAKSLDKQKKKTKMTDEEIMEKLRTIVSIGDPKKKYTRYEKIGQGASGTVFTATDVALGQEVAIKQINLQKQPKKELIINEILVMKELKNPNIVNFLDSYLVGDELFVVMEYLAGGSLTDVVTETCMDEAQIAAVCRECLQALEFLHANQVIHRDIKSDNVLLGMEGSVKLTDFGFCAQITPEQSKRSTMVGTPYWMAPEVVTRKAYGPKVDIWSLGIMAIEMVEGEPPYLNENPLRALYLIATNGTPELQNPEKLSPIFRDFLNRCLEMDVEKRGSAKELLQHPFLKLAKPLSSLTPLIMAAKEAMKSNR
Sequence of Src (P12931 whole entry): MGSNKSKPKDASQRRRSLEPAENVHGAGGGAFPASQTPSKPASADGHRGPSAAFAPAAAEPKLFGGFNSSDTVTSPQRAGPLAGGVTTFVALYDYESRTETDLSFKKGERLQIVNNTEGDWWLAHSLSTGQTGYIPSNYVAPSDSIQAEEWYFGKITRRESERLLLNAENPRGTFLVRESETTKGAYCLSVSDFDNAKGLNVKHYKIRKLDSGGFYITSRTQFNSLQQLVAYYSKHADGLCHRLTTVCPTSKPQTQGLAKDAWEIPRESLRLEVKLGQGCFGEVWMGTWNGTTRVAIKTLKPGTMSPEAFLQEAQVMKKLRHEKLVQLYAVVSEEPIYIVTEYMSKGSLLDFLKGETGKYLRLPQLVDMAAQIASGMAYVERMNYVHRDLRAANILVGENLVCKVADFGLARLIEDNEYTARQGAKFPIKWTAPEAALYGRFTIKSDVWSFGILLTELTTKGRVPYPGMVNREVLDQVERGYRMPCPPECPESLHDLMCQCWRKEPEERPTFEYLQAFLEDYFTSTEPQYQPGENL
Sequence of Akt1/PKBα (P31749 whole entry): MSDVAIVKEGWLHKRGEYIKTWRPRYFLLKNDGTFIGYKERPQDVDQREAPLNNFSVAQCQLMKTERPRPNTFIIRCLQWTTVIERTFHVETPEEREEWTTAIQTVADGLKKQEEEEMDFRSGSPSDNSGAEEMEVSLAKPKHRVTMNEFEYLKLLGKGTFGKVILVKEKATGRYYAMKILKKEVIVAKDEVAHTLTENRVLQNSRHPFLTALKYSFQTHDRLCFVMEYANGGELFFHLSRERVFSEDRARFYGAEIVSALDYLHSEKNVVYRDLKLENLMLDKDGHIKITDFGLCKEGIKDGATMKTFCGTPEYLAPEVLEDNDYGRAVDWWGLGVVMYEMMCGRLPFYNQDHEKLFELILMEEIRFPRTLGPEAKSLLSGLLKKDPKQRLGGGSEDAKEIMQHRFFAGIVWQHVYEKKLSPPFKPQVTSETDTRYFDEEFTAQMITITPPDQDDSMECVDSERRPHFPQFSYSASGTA
Sequence of IRK (P06213 28-1382): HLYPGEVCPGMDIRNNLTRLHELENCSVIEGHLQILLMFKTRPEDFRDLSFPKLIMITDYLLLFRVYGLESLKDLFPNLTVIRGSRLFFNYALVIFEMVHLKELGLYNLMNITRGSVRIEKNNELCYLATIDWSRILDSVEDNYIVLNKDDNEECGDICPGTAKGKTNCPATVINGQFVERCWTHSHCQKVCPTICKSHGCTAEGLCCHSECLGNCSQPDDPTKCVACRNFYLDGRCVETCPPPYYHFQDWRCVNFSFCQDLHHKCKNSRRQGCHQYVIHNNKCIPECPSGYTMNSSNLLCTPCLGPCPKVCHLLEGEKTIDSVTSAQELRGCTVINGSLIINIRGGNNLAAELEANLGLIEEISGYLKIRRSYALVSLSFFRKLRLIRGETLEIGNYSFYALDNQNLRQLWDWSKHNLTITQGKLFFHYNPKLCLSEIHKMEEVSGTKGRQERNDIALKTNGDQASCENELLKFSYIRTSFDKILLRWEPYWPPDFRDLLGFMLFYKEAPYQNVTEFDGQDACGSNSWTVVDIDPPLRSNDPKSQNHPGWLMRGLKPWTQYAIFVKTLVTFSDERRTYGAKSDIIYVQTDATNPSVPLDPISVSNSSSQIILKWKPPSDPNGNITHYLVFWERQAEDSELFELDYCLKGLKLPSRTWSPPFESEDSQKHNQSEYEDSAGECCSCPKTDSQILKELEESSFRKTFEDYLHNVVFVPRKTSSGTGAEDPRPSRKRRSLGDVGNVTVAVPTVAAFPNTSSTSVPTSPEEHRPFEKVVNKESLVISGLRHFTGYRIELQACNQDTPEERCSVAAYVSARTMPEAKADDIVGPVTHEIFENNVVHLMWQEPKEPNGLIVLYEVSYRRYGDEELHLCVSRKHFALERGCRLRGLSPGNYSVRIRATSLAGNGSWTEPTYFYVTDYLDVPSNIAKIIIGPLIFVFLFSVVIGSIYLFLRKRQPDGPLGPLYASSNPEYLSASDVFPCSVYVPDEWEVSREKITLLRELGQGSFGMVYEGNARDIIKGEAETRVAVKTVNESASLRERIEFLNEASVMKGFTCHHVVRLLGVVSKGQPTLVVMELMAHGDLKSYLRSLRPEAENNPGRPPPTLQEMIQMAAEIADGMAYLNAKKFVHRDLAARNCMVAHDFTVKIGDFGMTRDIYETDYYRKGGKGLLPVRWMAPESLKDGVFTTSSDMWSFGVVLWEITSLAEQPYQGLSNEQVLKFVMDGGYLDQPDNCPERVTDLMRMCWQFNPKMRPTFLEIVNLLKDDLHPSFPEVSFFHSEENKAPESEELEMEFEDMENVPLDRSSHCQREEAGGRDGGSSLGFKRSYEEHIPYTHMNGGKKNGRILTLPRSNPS

Turning to `CN[C@@H]1C[C@H]2O[C@@](C)([C@@H]1OC)n1c3ccccc3c3c4c(c5c6ccccc6n2c5c31)C(=O)NC4` [Staurosporine, reference compound], the nHill in assay [1] (control) is given as 2.2; in [2] (Akt/PKBα, control) it was 0.8; in assay [3] (control) it was > 3; in [4] (control), > 3; in [5] (control), 2.7; in assay [6] (control), 1.0. Further, the nHill was found to be 1.0 in assay [7] (control), 1.6 in [8] (control) and 1.2 in assay [9] (control).
Consider `CC1(C)CCC2=C(O1)c1ccccc1C(=O)C2=O` [β-Lapachone], for which the inhibition at 150 µM was 69% in assay [1] (setting [10]); 83.6% in [1] (setting [11]); 54.5% in assay [1] (setting [12]); 65.8% in assay [2] (setting [11]); 55% in assay [2] (setting [12]); 60.4% in assay [2] (setting [10]). In addition, the inhibition at 150 µM in assay [3] (setting [13]) is -34%; in [3] (setting [14]) it was 1.5%; in assay [3] (setting [15]) it was -16.2%; in [4] (setting [13]) it was -10.5%; in [4] (setting [14]), -5.4%; in assay [4] (setting [15]), -8%. The inhibition at 150 µM is 48.6% in assay [5] (setting [10]); 47.7% in [5] (setting [11]); 49.5% in assay [5] (setting [12]); 37.8% in assay [6] (setting [10]); 36.1% in [6] (setting [11]); 39.5% in [6] (setting [12]). Also, the inhibition at 150 µM in assay [7] (setting [10]) amounted to 50.8%; in assay [7] (setting [11]), 50.9%; in assay [7] (setting [12]), 50.6%; in assay [8] (setting [13]) it was 32.9%; in [8] (setting [14]) it was 33.1%; in assay [8] (setting [15]), 33%. Also, the inhibition at 150 µM amounted to 82.3% in [9] (setting [10]), 82.7% in assay [9] (setting [11]) and 82% in assay [9] (setting [12]).

(Values after PMC6138237, “Machine intelligence decrypts β-lapachone as an allosteric 5-lipoxygenase inhibitor” (Chemical Science, 2018).)
